The results in this text go back to US8158389B2, “Products and methods for in vivo secretion of monatin” (priority 2005, dated 2012).

The assay addresses T1, AcrAB efflux system (Escherichia coli, UniProt P31224).
T1 construct: endogenous in cells; host or cells: E. coli BL21 (DE3) carrying aspC/proA on pET32
Description: Monatin efflux per dry cell weight after induction of the AcrAB efflux pump with sodium decanoate. The assay is classed as cell-based. On the procedure:
The microbial strain used for the experiment was E. coli BL21 (DE3) : : aspC/proA/pET32 (WO 03091396). The symbol : :, as is known in the art, stands for “transformed.” Example 12 provides a non-limiting exemplary method for transforming a microorganism. For an inoculum, the E. coli strains were grown overnight at 37° C. and 250 rpm in Luria-Bertani (“LB”) medium with 100 μg/mL ampicillin. For the experimental treatments, Trp-1+ glucose medium, a minimal medium that has been used for increased production of tryptophan in E. coli cells (Zeman et al. Folia Microbiol. 35:200-204, (1990)), was prepared as follows. To 800 mL nanopure water the following reagents were added: 2 g (NH4)2SO4 and 13.6 g KH2PO4. The pH was adjusted to 7.0, the volume was increased to 948 mL, and the medium was autoclaved. Following sterilization, 0.2 g MgSO4.7H2O, 0.01 g CaCl2.2H2O, and 0.5 mg FeSO4.7H2O were added to the medium in a 1.8 mL volume followed by addition of 0.2 mL of Neidhardt's micronutrient solution. Neidhardt, F. C., et al., “Culture medium for Enterobacteria,” J. Bacteriol. 119:736-746 (1974). Neidhardt's medium includes (per liter): 0.18 g (NH4)6(MO7)24.4H2O, 1.24 g H3BO3, 0.36 g CoCl2.6H2O, 0.12 g CuSO4 (anhydrous), 0.8 g MnCl2.4H2O, and 0.14 g ZnSO4.7H2O. A 50% glucose solution was prepared separately and sterile-filtered. Forty mL of glucose solution and 10 mL of 1 M 3-Morpholinopropanesulfonic acid (“MOPS”) buffer were added to the base medium (950 mL) for a 1 L final volume. […] Flasks were incubated at 37° C. with agitation at 250 rpm up to induction. […] 0.5 mM pyridoxine hydrochloride, and 0.2 mL of Balch's vitamins (Balch, W. E., et al., “Methanogens: reevaluation of a unique biological group,” Microbiol. Rev. 43:260-296, (1979)) were added at induction and the incubation temperature was lowered to 30° C. following induction. […] Some treatments included 2.5 mM sodium decanoate addition at 3.5 hours following induction. Samples for monatin analysis and dry cell weight determination were taken at 24 and 30 hours. Monatin analysis was done as described in Example 13.
Analyses of mixtures for monatin and tryptophan derived from in vitro or in vivo biochemical reactions were performed using a Waters/Micromass liquid chromatography-tandem mass spectrometry (“LC/MS/MS”) instrument including a Waters 2795 liquid chromatograph with a Waters 996 Photo-Diode Array (PDA) absorbance monitor placed in series between the chromatograph and a Micromass Quattro Ultima triple quadrupole mass spectrometer. LC separations were made using an Xterra MS C8 reversed-phase chromatography column, 2.1 mm×250 mm at 40° C. The LC mobile phase consisted of A) water containing 0.05% (v/v) trifluoroacetic acid and B) methanol containing 0.05% (v/v) trifluoroacetic acid.
The gradient elution was linear from 5% B to 35% B, 0-4 min, linear from 35% B to 60% B, 4-6.5 min, linear from 60% B to 90% B, 6.5-7 min, isocratic at 90% B 7-11 min, linear from 90% B to 95% B, 11-12 min, linear from 95% B to 5% B, 12-13 min, with a 5 min re-equilibration period between runs. The flow rate was 0.25 mL/min, and PDA absorbance was monitored from 200 nm to 400 nm. All parameters of the ESI-MS were optimized and selected based on generation of protonated molecular ions ([M+H]^+) of the analytes of interest, and production of characteristic fragment ions. […]

[1] abbreviates: 2.5 mM Na decanoate, E. coli BL21 (DE3)::aspC/proA/pET32, single flasks.

“And” between values parts separate entries of the source, which are not always exact repeats. Identical values can stand only once.

T1 sequence (P31224 whole entry): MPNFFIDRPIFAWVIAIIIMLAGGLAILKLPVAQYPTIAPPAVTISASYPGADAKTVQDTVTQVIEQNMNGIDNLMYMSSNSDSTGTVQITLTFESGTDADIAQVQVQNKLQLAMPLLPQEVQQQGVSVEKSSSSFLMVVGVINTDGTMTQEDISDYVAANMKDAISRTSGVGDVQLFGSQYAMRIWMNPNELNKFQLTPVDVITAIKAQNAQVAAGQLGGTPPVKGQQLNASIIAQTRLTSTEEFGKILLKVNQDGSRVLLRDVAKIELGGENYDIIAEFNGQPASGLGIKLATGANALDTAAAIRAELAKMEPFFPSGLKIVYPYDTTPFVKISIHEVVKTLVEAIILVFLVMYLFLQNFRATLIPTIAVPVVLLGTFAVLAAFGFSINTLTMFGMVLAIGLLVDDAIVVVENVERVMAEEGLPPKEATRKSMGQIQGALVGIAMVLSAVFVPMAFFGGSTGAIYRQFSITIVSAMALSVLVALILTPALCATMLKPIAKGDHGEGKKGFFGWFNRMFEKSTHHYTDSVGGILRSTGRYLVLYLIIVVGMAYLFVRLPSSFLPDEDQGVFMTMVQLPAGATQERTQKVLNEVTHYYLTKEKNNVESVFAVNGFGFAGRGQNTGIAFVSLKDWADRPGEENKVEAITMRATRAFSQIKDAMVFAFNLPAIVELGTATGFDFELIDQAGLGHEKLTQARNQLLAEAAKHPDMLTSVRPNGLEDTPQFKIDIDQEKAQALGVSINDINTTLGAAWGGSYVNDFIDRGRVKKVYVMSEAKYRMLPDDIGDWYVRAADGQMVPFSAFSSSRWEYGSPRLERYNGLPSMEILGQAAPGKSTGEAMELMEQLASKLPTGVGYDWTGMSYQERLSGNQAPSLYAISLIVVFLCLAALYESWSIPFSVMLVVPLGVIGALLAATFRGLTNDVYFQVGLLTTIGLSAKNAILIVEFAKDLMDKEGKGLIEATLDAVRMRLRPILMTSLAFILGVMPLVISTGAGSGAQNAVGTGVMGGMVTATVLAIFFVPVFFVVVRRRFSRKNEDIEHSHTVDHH
T1 sequence (P02930 23-493, further chain): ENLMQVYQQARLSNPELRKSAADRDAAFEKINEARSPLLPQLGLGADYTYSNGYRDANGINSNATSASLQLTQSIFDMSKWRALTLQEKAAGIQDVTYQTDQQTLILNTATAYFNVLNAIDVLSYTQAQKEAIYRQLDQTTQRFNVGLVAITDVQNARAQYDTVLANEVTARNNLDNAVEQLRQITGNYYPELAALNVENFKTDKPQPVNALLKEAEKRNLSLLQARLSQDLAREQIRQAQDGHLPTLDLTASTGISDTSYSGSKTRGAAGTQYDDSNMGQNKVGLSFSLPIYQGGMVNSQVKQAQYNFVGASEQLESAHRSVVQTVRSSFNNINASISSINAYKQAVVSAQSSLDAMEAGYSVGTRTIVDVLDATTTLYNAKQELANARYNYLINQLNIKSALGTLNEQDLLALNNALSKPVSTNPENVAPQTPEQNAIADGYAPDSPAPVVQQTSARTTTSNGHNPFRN
T1 sequence (P0AE06 25-397, further chain): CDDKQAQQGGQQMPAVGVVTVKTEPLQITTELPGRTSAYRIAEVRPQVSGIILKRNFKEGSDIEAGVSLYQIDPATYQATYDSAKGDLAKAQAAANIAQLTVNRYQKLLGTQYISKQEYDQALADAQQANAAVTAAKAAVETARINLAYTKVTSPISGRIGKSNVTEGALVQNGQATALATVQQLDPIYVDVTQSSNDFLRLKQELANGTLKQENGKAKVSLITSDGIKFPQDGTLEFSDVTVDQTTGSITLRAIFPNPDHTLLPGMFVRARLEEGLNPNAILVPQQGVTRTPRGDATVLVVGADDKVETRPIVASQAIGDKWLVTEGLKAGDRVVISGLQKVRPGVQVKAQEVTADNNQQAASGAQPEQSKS

Consider `CCCCCCCCCC(=O)[O-].[Na+]` [sodium decanoate], for which, under setting [1], the “Monatin/dcw at run hour 24” value is 14.7 mg monatin/g dcw and 12.0 mg monatin/g dcw and 17.0 mg monatin/g dcw; the “Monatin/dcw at run hour 30” value is 14.3 mg monatin/g dcw and 13.8 mg monatin/g dcw and 17.4 mg monatin/g dcw. Besides, under “2.5 mM Na decanoate, n = 3”, the “Average monatin/dcw at run hour 24” value is listed as 14.6 mg monatin/g dcw and the “Average monatin/dcw at run hour 30” value amounted to 15.2 mg monatin/g dcw. Also, the “increase in monatin secreted/dry cell weight” value (2.5 mM sodium decanoate vs no decanoate) is listed as “Greater than nine fold increase”.
